Series [1] in a line: Stability of compound under biochemical assay conditions with recombinant TGR (LC-MS). The format is physicochemical. Particulars: with or without NADPH. The protocol:
TGR assay solutions (1 ml each) were prepared as described in the main manuscript. […] Each of the reaction mixtures were terminated by the addition of 250 µl of ethyl acetate, extracted with 1 ml of methyl tert-butyl ether. The organic layer was evaporated in vacuo, and the residue was redissolved in 0.5 mL of 50% MeOH before injection onto LC column. LC-MS analysis was done on a Waters SYNAPT quadrupole/time-of-flight mass spectrometer operated in positive ion electrospray mode. The column was Waters XBridge C8 column and gradient was from 20-90% MeCN/0.1% formic acid over 12 min.

Series [2] in a line: Reactivity with GSH or N-Boc protected methyl ester of selenocysteine (LCMS). The format is physicochemical. The following applies: up to 120 h. The procedure:
Dimethyl bis(N-tert-butoxycarbonyl)-L-selenocystine was synthesized as reported previously. (N-tert-butoxycarbonyl)-L-selenocysteine methyl ester was prepared in situ[86] in methanol or phosphate buffer. Compound 2 was added to the solution of (N-tert-butoxycarbonyl)-L-selenocysteine methyl ester in either methanol or phosphate buffer and incubated for 40 min, 24 h, and 120 h under N2 gas balloon. Additional amounts of NaBH4 were added at 12 h and 96 h to maintain the reducing conditions. Aliquots taken from methanol solution at each of the time points were concentrated in vacuo, mixed with water, and extracted with ethyl acetate. The organic layer was separated, concentrated in vacuo, re-dissolved in methanol and analyzed by LCMS. Aliquots taken from the phosphate buffer solution were extracted with ethyl acetate. The resulting organic layer was separated and concentrated in vacuo. The residue was re-dissolved in methanol and analyzed by LCMS. […] No additional spots were detected by TLC as well.
Covalent TGR inhibitor TRi-1 was used as a positive control for the reaction with (N-tert-butoxycarbonyl)-L-selenocysteine methyl ester. The reactivity of TRi-1 was tested similarly as described above for compound 2.

The next series deals with S. mansoni NTS. Nature of the series: Phenotypic assessment of PZQ activity on NTS. It is filed as cell-based. Particulars: for % Effect, single replicates I, II, III / % Effect / NTS phenotypic score, Mean / IC50: 24 hour exposure; for % Effect: from mean score, 100 - Average (Test) x 100 / Average (Control); for NTS phenotypic score, Mean: score 3 (motile) to 0 (dead); for IC50: NTS phenotypic scoring. The procedure: About 200 NTS incubated at 37 °C in a 5% CO2 incubator overnight were exposed to different concentrations of PZQ (1, 5, 10, 20, 30, 40 and 50 µM) and control without treatment for 24 h in triplicate. Worm images were acquired using Keyence BZ-X800 microscope and PZQ activity evaluated phenotypically. NTS viability was assessed by scoring worms based on morphological changes and motility. Viability scores of 3 = motile, no changes to morphology and transparency, 2 = reduced motility and/or some damage to tegument as well as reduced transparency and increased granularity, 1 = severe reduction of motility and/or damage to tegument with high opacity and high granularity, and 0 = dead.

For series [3] the following is noted: human, in vivo; cited from earlier work.
In the next series the test system is juvenile worms in mice. The following applies: cited from earlier work.

The structures appear in SMILES notation. Values joined by “and” are separate entries in the source; they are usually repeats but may differ in a detail not shown here. Identical values can stand only once. “Also recorded” adds a separate entry of the source. Like-named read-outs stand apart in the source and are kept apart here.

Consider two compounds from paper PMC10287695, “Non-covalent inhibitors of thioredoxin glutathione reductase with schistosomicidal activity in vivo” (Nature Communications, 2023).

As usually defined, the IC50 is the concentration that inhibits the measured activity by half. By half-life is commonly meant how long it takes for the measured level to halve.

As to `CCc1ccccc1-c1nc(CN[C@@H]2C[C@@H]3C[C@H]([C@H]2C)C3(C)C)c(C)o1` [Compound 2], the “formation of derivatives under biochemical assay conditions” value in series [1] is recorded as “No additional ions except for those corresponding to 2 were detected; also recorded: no formation of derivatives”. The “reaction with thiol or selenol groups in GSH or protected selenocysteine” value in series [2] is given as “No additional peaks were detected; also recorded: no reaction”.
For `O=C(C1CCCCC1)N1CC(=O)N2CCc3ccccc3C2C1` (stereo not drawn) [PZQ, praziquantel], the “% Effect, single replicates I, II, III” value with S. mansoni NTS (10 µM) is 9.401% and 12.151% and 16.3217%; in the series with S. mansoni NTS (20 µM), 15.8245% and 13.8003% and 19.4239%; with S. mansoni NTS (30 µM) it was 25.0655% and 24.6184% and 29.7619%; with S. mansoni NTS (40 µM) it was 41.1572% and 48.5123% and 41.922%; with S. mansoni NTS (50 µM), 60.2247% and 58.8296% and 61.8051%. Further, the “% Effect” value in the series on S. mansoni NTS (10 µM) is recorded as 12.6338%; in the series with S. mansoni NTS (20 µM), 16.3511%; in the series on S. mansoni NTS (30 µM), 26.486%; with S. mansoni NTS (40 µM) it was 43.8717%; in the series on S. mansoni NTS (50 µM), 60.2866%. For the same compound, the “NTS phenotypic score, Mean” value in the series on S. mansoni NTS (10 µM, mean of 3 replicates) is on record as 2.613; in the series on S. mansoni NTS (20 µM, mean of 3 replicates) it was 2.502; in the series with S. mansoni NTS (30 µM, mean of 3 replicates), 2.199; in the series with S. mansoni NTS (40 µM, mean of 3 replicates), 1.679; with S. mansoni NTS (50 µM, mean of 3 replicates) it was 1.188. For the same compound, the “LD50 for NTS, phenotypic analysis” value with S. mansoni NTS (24 h exposure) was determined as 42.9 ± 0.83 µM. The IC50 with S. mansoni NTS (FORECAST interpolation, read-out: IC50, single replicates I, II, III) was 42.6 µM and 42.3 µM; in the series on S. mansoni NTS (Schistosoma mansoni, 24 h, FORECAST interpolation, read-out: IC50, single replicates I, II, III), 43.9 µM; in the series with S. mansoni NTS (Schistosoma mansoni, 24 h, mean of 3 replicates, read-out: IC50, Mean), 42.9 µM. The half-life in series [3] was 1.6 h. Moreover, the “reduction in worm burden” value in the series on juvenile worms in mice (mice, 500 mg/kg, 21 d.p.i.) is 0%; with juvenile worms in mice (mice, 500 mg/kg, 28 d.p.i.) it was 0%; with juvenile worms in mice (mice, 1,000 mg/kg, 21 d.p.i.), 50%; in the series on juvenile worms in mice (mice, 1,000 mg/kg, 28 d.p.i.) it was 17%. In addition, the ED50 with juvenile worms in mice (mice, doses titrated 28 d.p.i.) was 2,456 mg/kg.
